# Test results from patent US20220401407A1, “REGULATION OF THE SLEEP/WAKE CYCLE USING C[…]” (Demetrix, Inc., priority 2021, published 2022).
# “Also recorded” adds a separate entry of the source.
# Columns and labels:
# Format in all cases: cell-based
# HCRTR1 [1] = biological target: T1, HCRTR1 (Homo sapiens, UniProt O43613); test: PathHunter β-Arrestin GPCR agonist assay, HCRTR1; set-up: concentration or dose not given beside the values; conditions: agonist mode; Orexin A as control
# T1 sequence (O43613 1-425): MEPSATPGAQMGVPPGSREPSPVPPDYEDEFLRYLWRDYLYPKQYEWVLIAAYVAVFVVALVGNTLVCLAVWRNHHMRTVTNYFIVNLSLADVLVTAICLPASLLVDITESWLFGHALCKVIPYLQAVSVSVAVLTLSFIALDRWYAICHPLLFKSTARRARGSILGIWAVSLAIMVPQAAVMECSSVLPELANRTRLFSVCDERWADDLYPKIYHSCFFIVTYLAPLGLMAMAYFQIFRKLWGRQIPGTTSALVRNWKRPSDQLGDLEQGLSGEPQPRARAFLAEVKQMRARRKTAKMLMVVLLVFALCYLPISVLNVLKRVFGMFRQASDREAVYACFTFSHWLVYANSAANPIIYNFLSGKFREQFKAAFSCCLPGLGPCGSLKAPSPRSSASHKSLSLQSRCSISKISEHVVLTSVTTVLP
# Procedure: (§1) To evaluate the role specific cannabinoid compounds may play on the sleep/wake cycle, a GPCR reactivity assay was performed to determine the reactivity of 19 cannabinoid compounds to the orexin receivers HCRTR1 and HCRTR2. The evaluated cannabinoid compounds were: CBN, THCV, CBDVA, CBG, CBL, CBC, CBDV, CBDA, CBD, CBGA, (+)-CBD, CBG-C4, CBD-C1, CBD-C2, CBGV, CBGA-C4, CBGVA, CBCA, and CBLA. Orexin A was used as the control for HCRTR1 and HCRTR2.
# (§2) To perform the GPCR reactivity assay, a commercial GPCR assay, PathHunter® β-Arrestin from Eurofins DiscoverX Products (Fremont, Calif.), was used. […] At activation of the GPCR receptor and recruitment of β-arrestin, complementation of the peptide fragments occurs and restores β-galactosidase activity. The amount of β-galactosidase activity is then measurable using chemiluminescent reagents.
# (§3) A total of four assays were run. Agonist assays were run for each of HCRTR1 and HCRTR2 and antagonist assays were run for HCRTR1 and HCRTR2. In each of the two agonist assays, PathHunter® cell lines were removed from a freezer stock and seeded at a volume of 20 μL into white walled, 384-well microplates and incubated at 37° C. Each cell was incubated with a sample to induce a response and then diluted to generate a 5× sample in assay buffer. 5 μL of the 5× sample was then added to cells and incubated at 37° C. for 90 or 180 minutes. The final assay concentration was 1%. The assay signal was generated through addition of 12.5 μL or 15 μL (50% V/V) of a detection reagent cocktail followed by a one hour incubation time at room temperature. Microplates were read following signal generation with a PerkinElmer Envision™ (PerkinElmer Inc., Waltham, Mass.) for chemiluminescent signal detection. Reactivity was analyzed using the CBIS data analysis suite (ChemInnovation, CA) where RLU refers to the raw measured values. The percent activity was then calculated using the formula: % Activity=100%*(mean RLU of test sample−mean RLU of control)/(mean max control ligand−mean RLU of vehicle control).
# (§4) For agonist activity, the percent activity is depicted while for antagonist activity, the percent inhibition is depicted.
# HCRTR2 [2] = biological target: T2, HCRTR2 (Homo sapiens, UniProt O43614); test: PathHunter β-Arrestin GPCR agonist assay, HCRTR2; set-up: concentration or dose not given beside the values; conditions: agonist mode; Orexin A as control
# T2 sequence (O43614 1-444): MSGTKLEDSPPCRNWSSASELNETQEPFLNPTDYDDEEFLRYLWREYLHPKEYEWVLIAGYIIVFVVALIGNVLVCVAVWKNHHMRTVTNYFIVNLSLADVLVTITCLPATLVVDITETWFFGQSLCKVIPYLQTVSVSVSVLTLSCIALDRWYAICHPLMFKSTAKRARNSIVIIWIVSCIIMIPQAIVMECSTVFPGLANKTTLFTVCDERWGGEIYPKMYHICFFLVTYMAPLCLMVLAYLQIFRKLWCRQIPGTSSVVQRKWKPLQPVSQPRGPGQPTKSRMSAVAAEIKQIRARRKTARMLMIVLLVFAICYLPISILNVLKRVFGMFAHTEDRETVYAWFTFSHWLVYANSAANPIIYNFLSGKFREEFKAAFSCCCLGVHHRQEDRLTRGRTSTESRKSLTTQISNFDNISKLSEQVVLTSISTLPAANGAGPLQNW
# Procedure: as §1, §2, §3, §4
# dopamine receptor DRD5 = dopamine receptor DRD5 (Homo sapiens, UniProt P21918); test: PathHunter β-Arrestin GPCR agonist assay, DRD5; set-up: DRD5 (Agonist) percent activity: concentration or dose not given beside the values; conditions: for DRD5 (Agonist) percent activity: agonist mode, dopamine as control
# Excerpt: as §2, §3
# Table 2 depicts the results of evaluating the cannabinoid compounds to act as an agonist for the dopamine receptor DRD5. The same experimental procedure as used for HCRTR1 and HCRTR2 agonist testing (Table 1) was followed with the substitution of dopamine as the control for the DRD5 receptor.
# HCRTR1 [3] = biological target: T1, HCRTR1; test: PathHunter β-Arrestin GPCR antagonist assay, HCRTR1; conditions: for HCRTR1 (Antagonist) percent inhibition: antagonist mode, agonist challenge at EC80
# Procedure: as §1, §2
# (§5) In each of the two antagonist assays, PathHunter® cell lines were removed from a freezer stock and seeded at a volume of 20 μL into white walled, 384-well microplates and incubated at 37° C. Each cell was pre-incubated with an antagonist followed by an agonist challenge at the EC80 concentration. Cells were then diluted to generate a 5× sample in assay buffer. 5 μL of the 5× sample was then added to cells and incubated at 37° C. for 30 minutes. Finally, 5 μL of 6×EC80 agonist in assay buffer were added to the cells and incubated at 37° C. for 90 minutes or 180 minutes. The assay signal was generated through addition of 12.5 μL or 15 μL (50% V/V) of a detection reagent cocktail followed by a one hour incubation time at room temperature. Microplates were read following signal generation with a PerkinElmer Envision™ (PerkinElmer Inc., Waltham, Mass.) for chemiluminescent signal detection. Reactivity was analyzed using the CBIS data analysis suite (ChemInnovation, CA) where RLU refers to the raw measured values. The percent inhibition was calculated using the formula: % Inhibition=100%*(1−mean RLU of test sample−mean RLU of control)/(mean RLU of EC80 control−mean RLU of vehicle control).
# as §4
# HCRTR2 [4] = biological target: T2, HCRTR2; test: PathHunter β-Arrestin GPCR antagonist assay, HCRTR2; conditions: for HCRTR2 (Antagonist) percent inhibition: antagonist mode, agonist challenge at EC80
# Procedure: as §1, §2, §5, §4
# dopamine receptor DRD5, sequence (P21918 whole entry): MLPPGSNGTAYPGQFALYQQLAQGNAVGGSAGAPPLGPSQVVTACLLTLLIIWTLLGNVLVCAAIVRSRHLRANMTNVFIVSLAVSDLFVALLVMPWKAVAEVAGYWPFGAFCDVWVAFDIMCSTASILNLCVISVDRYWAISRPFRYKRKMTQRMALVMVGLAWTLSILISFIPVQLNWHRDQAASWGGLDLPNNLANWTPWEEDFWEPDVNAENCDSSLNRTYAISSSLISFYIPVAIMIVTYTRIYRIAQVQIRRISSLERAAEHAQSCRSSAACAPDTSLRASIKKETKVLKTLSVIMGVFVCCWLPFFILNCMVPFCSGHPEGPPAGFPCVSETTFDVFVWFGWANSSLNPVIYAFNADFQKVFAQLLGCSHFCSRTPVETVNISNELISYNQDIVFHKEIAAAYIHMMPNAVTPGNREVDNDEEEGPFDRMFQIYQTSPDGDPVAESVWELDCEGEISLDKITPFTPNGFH
Compound,HCRTR1 (Agonist) percent activity (HCRTR1 [1]) [%],HCRTR2 (Agonist) percent activity (HCRTR2 [2]) [%],DRD5 (Agonist) percent activity (dopamine receptor DRD5) [%],antagonist effect on HCRTR1 (in words) (HCRTR1 [3]),HCRTR1 (Antagonist) percent inhibition (HCRTR1 [3]) [%],antagonist effect on HCRTR2 (in words) (HCRTR2 [4]),HCRTR2 (Antagonist) percent inhibition (HCRTR2 [4]) [%],DRD5 agonist effect (in words) (dopamine receptor DRD5)
"CCCCCc1cc(O)c2c(c1)OC(C)(C)c1ccc(C)cc1-2 [CBN, cannabinol]",1,7,3,antagonist effect; also recorded: acted as an antagonist,95,antagonist effect; also recorded: acted as an antagonist,94,
"CCCCc1cc(O)c(CC=C(C)CCC=C(C)C)c(O)c1 [CBG-C4, cannabigerol butyl]",4,6,6,antagonist effect; also recorded: acted as an antagonist,84,antagonist effect; also recorded: acted as an antagonist,45,
"CCCCCc1cc(O)c2c(c1)OC(C)(CCC=C(C)C)C=C2 (centres unmarked) [CBC, cannabichromene]",0,3,22,antagonist effect; also recorded: acted as an antagonist,98,antagonist effect; also recorded: acted as an antagonist,96,
"CCCCCc1cc(O)c2c(c1)OC1(C)CCC3C1C2C3(C)C (centres unmarked) [CBL, cannabicyclol]",2,5,37,antagonist effect; also recorded: acted as an antagonist,96,antagonist effect; also recorded: acted as an antagonist,93,DRD5 agonists; also recorded: stronger agonist effects
"CCCCCc1cc(O)c(C/C=C(\C)CCC=C(C)C)c(O)c1 [CBG, cannabigerol]",3,4,9,antagonist effect; also recorded: acted as an antagonist,98,antagonist effect; also recorded: acted as an antagonist,68,
"C=C(C)[C@@H]1CCC(C)=C[C@H]1c1c(O)cc(C)cc1O [CBD-C1, cannabidiorcol]",3,1,0,do not demonstrate meaningful activity,12,do not demonstrate meaningful activity,9,
"CCCCc1cc(O)c(C/C=C(\C)CCC=C(C)C)c(O)c1C(=O)O [CBGA-C4, cannabigerolic acid butyl]",3,1,0,do not demonstrate meaningful activity,2,do not demonstrate meaningful activity,10,
"CCCCCc1cc(O)c(C/C=C(\C)CCC=C(C)C)c(O)c1C(=O)O [CBGA, cannabigerolic acid]",1,1,0,do not demonstrate meaningful activity,8,do not demonstrate meaningful activity,14,
"C=C(C)[C@@H]1CCC(C)=C[C@H]1c1c(O)cc(CCCCC)cc1O [CBD, cannabidol]",1,5,27,antagonist effect; also recorded: acted as an antagonist,96,antagonist effect; also recorded: acted as an antagonist,85,
"C=C(C)[C@@H]1CCC(C)=C[C@H]1c1c(O)cc(CCC)cc1O [CBDV, cannabidivarin]",0,0,7,demonstrate activity against only HCRTR1; also recorded: acted as antagonists,61,demonstrate activity against only HCRTR1; also recorded: did not act as antagonists,18,
(+)-cannabidiol [(+)-CBD],3,8,9,antagonist effect; also recorded: acted as an antagonist,97,antagonist effect; also recorded: acted as an antagonist,80,
"CCCc1cc(O)c(C/C=C(\C)CCC=C(C)C)c(O)c1 [CBGV, cannabigerivarin]",4,2,6,demonstrate activity against only HCRTR1; also recorded: acted as antagonists,44,demonstrate activity against only HCRTR1; also recorded: did not act as antagonists,12,
"CCCc1cc(O)c(C/C=C(\C)CCC=C(C)C)c(O)c1C(=O)O [CBGVA, cannabigerovarinic acid]",0,1,0,do not demonstrate meaningful activity,3,do not demonstrate meaningful activity,12,
